Measured values as given in patent publication US10766888B1, “HMOX1 inducers” (Mitobridge Inc., priority 2019, dated 2020).
“Also recorded” adds a separate entry of the source.

Legend:
[1] = tested on: HMOX1; assay: HMOX1 mRNA expression in HepG2 cells (Nanostring); type: cell-based, human; conditions: 24 hours treatment, mRNA fold change vs DMSO
Experimental: Example 147. HMOX1 Inducers of the Invention Strongly Increase In Vitro Expression of HMOX1
(§1) RNA Isolation and Quantification of Gene Expression
(§2) HepG2 cells were seeded at 250 k/well in 12-well tissue culture plates coated with collagen (collagen I, rat tail (thin plate coating); ENZO Life Sciences) for approximately 24 hours. The seeded cells were then treated with dose titration of the compound of Example 17 or dimethyl fumarate (DMF) (a Nrf2 activator; Fisher Scientific) via media change, with biological triplicates performed for each treatment. After approximately 24 hours of treatment, cells were visually inspected to confirm that no toxicity occurred with compound treatment. The treated cells were washed with PBS, aspirated, parafilmed and frozen at −80° C. prior to RNA isolation. RNA was isolated using Machery-Nagel isolation kit (NucleoSpin® RNA: catalog 740955.250) and then quantitated using ThermoFisher Nanodrop.
RNA was diluted for Nanostring gene expression analysis. […]
The relative mRNA levels of the HMOX1 gene in HepG2 cells treated with the compound of Example 17 or DMF were measured according to the methods described above. […]

[2] = tested on: FTH1; assay: FTH1 mRNA expression in HepG2 cells (Nanostring); type: cell-based, human; conditions: 24 hours treatment
Experimental: as §1, §2
RNA was diluted for Nanostring gene expression analysis. The diluted RNA at an input of 200 ng RNA was run on a Nanostring instrument, which was supported with nCounter® SPRINT Profiler System and nSolver4.0 Software, nCounter® SPRINT Cartridge, nCounter® SPRINT Reagent Pack, and nCounter® SPRINT Hybridization Buffer. Analysis was done manually using raw data obtained from nSolver4.0 Software. CLTC, POLR2A, RPL27 and TBP were used as reference genes for normalization. Data was graphed as fold change compared to DMSO treatment. […]

[3] = tested on: HbSS Townes sickle mice; assay: F-cells (HbF-containing red blood cells) in HbSS Townes sickle mice; type: in vivo
From the text: Blood smears were made using heparinized whole blood for F-cells staining. Stained F-cells and total red blood cells were counted on the blood smears in four fields; mean=77 red blood cells/field. F-cells are expressed as a percentage of total red blood cells. Values are means+SD. One-Way ANOVA with Dunnett's Multiple comparison to Vehicle **p≤0.01, ***p≤0.001, ****p≤0.0001
Dosing Scheme of HMOX Inducers to HbSS Townes Sickle Mice
HbSS Townes sickle mice were oral gavaged once daily with Vehicle or the compound of Example 17 listed below for 8 days. To minimize experimental inconsistency, fresh formulation was prepared every day and vortexed prior to drawing test article into syringe for each dosing, and dosing was performed by the same individual throughout the day. The last-day dose was administered by oral gavage 4 hours prior to hemin infusion described below. • 1. […]
F-cells were stained on whole blood smears by the Kleihauer-Betke method using a fetal cell stain kit (Simmler) according to the manufacturer's instructions. F-cells and total erythrocytes were counted in 4 separate microscopic fields at 100× magnification for each mouse. The F-cells were expressed as a percentage of total erythrocytes (i.e., red blood cells). […]

[4] = tested on: Primary human pulmonary artery endothelial cells (HPAEC); assay: Glutathione (GSH) levels in primary human endothelial cells under hemin stress; type: cell-based
Experimental: Example 149. Glutathione (GSH) Levels in Primary Human Endothelial Cells
Primary human pulmonary artery endothelial cells (HPAEC) (Lonza # CC-2530) cultured in endothelial cell growth medium-2 (EGM2 media, Lonza # CC-3162) were seeded in white 96-well plate (Corning® #3610) at 12.5 k cells per well and placed at 37° C. in 5% CO2. 18-24 hr post seeding, cells were treated with the compound of Example 17 via media change. 24 hr post treatment with the compound, cells were treated using a freshly prepared hemin stock (Sigma-Aldrich #51280 in 0.1N NaOH) alone or with the compound of Example 17. […] Media was aspirated off and GSH-Glo™ Glutathione Assay (Promega # V6911) was run following the manufacturer's protocol. White bottom plate seal (PerkinElmer #6005199) was used during read. Analysis was done using Softmax Pro.

[5] = tested on: VCAM-1; assay: Gene expression (VCAM-1) in primary human endothelial cells stimulated with TNFa; type: cell-based; conditions: HPAEC
Experimental: Example 150. Gene Expression in Primary Human Endothelial Cells
Inflammatory conditions in endothelial cells increase expression of adhesion molecules, such as VCAM-1, ICAM-1 and E-selectin through NF-kB signaling. HMOX1−/− endothelial cells show increased expression of VCAM-1 in response to TNF stimulation, as compared to HMOX+/+endothelial cells. See Seldon et al., J Immunol Dec. 1, 2007, 179 (11) 7840-7851.
Primary human pulmonary artery endothelial cells (HPAEC) (Lonza # CC-2530) were seeded in 12-well plates (TrueLine # TR5001) at 200 k cells per well and placed at 37° C. in 5% CO2. 18-24 hr post seeding, cells were treated with the compound of Example 17 via media change. 24 hr post treatment with the compound, cells were treated with 10 ng/mL TNFa (Invitrogen # PHC3015 in H2O) alone or with the compound of Example 17. […] 20 ng cDNA was mixed with water, iQ™ SYBR® Green Supermix (BioRad #170-8886), and 300 nM primer (IDT # NM_001078) for a total 10 ul reaction and loaded into 384-well white qPCR plates and subsequently analyzed using BioRad CFX384. […] To calculate fold change, the ΔCt on a per sample basis was calculated as Ct (Gene of interest)−Ct (Average of reference genes). The ΔΔCt was then calculated as ΔCt (experimental sample)−Average ΔCt (control group). Fold change was calculated as 2^−ΔΔCT.

For `Cn1c(Nc2nc3ccccc3o2)nc2cc(C(=O)NCCOCCO)ccc21` [Example 17, 2-(benzo[d]oxazol-2-ylamino)-N-(2-(2-hydroxyethoxy)ethyl)-1-methyl-1H-benzo[d]imidazole-5-carboxamide], the “HMOX1 expression compared with DMF (in words)” value [1] was “much more strongly than DMF”, the “FTH1 expression fold increase (in words)” value [2] was “comparable fold increases” and the “percent F-cells compared with vehicle (in words)” value ([3]; 10, 25, 50 mg/kg PO once daily for 8 days) was “significantly increased; also recorded: more than doubled; also recorded: did not appear to be dose responsive; also recorded: increase”. For the same compound, the “percent F-cells (of total red blood cells)” value ([3]; all doses tested (10, 25, 50 mg/kg PO, 8 days)) was 55-70%, the “GSH levels / protection from hemin mediated oxidative stress (in words)” value ([4]; 24 hr pre-incubation, 30 min hemin stress) was “protects these cells from hemin mediated oxidative stress” and the “toxicity by visual inspection of cells” value ([4]; after 30 min of hemin stress) was “no toxicity”. The “TNF-α mediated endothelial cell activation / VCAM-1 expression (in words)” value ([5]; 24 hr pre-treatment, 10 ng/mL TNFa 4 hours) was “reduced this TNF-α mediated endothelial cell activation” and the “toxicity by visual inspection of cells” value ([5]; after 4 hours of TNFa treatment) was “no toxicity”.
